The values below come from publication PMC9646970 (Poultry Science, 2022).

For data set [1] the following is noted: cited from earlier work.
Data set [2] is classed as in vivo, broiler chickens.
A short description of data set [3]: Population pharmacokinetic analysis. It is filed as in vivo, broiler chickens. To be noted: for AUC: geometric mean.
Data set [4] is classed as in vivo, broiler chickens. The conditions noted are these: single ENR administration (i.v. 10 mg/kg or p.o. 20 mg/kg) with or without CsA or AC.
The mark [5] stands for this setting: oral administration, same dose (20 mg/kg), ref Xiao et al., 2018.
The mark [6] stands for this setting: population fixed effect, p.o. administration.

Where two headings read alike, the source gives them in different places.

For the molecule `CCN1CCN(c2cc3c(cc2F)c(=O)c(C(=O)O)cn3C2CC2)CC1` [Enrofloxacin, enrofloxacin], the “oral bioavailability change with verapamil co-administration” value in data set [1] (co-administered with the P-gp inhibitor verapamil, ref Guo et al., 2013) is “nearly doubled”. The AUC is 15.2 ± 1.08 µg·h/mL in data set [1] (i.v. administration at 10 mg/kg, ref Atef et al., 2020); 40400 ng·h/mL in data set [2] (Ross hybrid (Cornish × Plymouth Rock), plasma, po, 20 mg/kg, AUC, enrofloxacin in plasma, enrofloxacin p.o. 20 mg/kg + cyclosporine A p.o. 50 mg/kg, geometric mean (min–max)); 13300 ng·h/mL in data set [3] (Ross hybrid (Cornish × Plymouth Rock), plasma, iv, 10 mg/kg, AUCi.v. – activated charcoal, enrofloxacin i.v. 10 mg/kg + activated charcoal p.o. 1 g/kg); 16200 ng·h/mL in data set [3] (Ross hybrid (Cornish × Plymouth Rock), plasma, iv, 10 mg/kg, AUCi.v. – cyclosporine A, enrofloxacin i.v. 10 mg/kg + cyclosporine A p.o. 50 mg/kg); 31200 ng·h/mL in data set [3] (Ross hybrid (Cornish × Plymouth Rock), plasma, po, 20 mg/kg, AUCp.o. – control, enrofloxacin p.o. 20 mg/kg alone); 37400 ng·h/mL in data set [3] (Ross hybrid (Cornish × Plymouth Rock), plasma, po, 20 mg/kg, AUCp.o. – cyclosporine A, enrofloxacin p.o. 20 mg/kg + cyclosporine A p.o. 50 mg/kg). In data set [1] (setting [5]), the AUC0-24h is given as 30.07 ± 4.64 µg/h/mL. Also, the Cmax is 2.86 ± 0.52 µg/mL in data set [1] (setting [5]) and 5620 ng/mL in data set [2] (Ross hybrid (Cornish × Plymouth Rock), plasma, po, 20 mg/kg, Cmax, enrofloxacin in plasma, enrofloxacin p.o. 20 mg/kg + cyclosporine A p.o. 50 mg/kg, geometric mean (min–max)). The Tmax in data set [2] (Ross hybrid (Cornish × Plymouth Rock), plasma, po, 20 mg/kg, Tmax, enrofloxacin in plasma, enrofloxacin p.o. 20 mg/kg + cyclosporine A p.o. 50 mg/kg, geometric mean (min–max)) was 1.35 h. The “increase of AUC with CsA co-administration” value in data set [2] (enrofloxacin p.o. 20 mg/kg + CsA p.o. versus enrofloxacin p.o. alone) was “approx. 20%”. The molecule further had a bioavailability in data set [3] (Ross hybrid (Cornish × Plymouth Rock), plasma, po, 20 mg/kg) of 100%. The “lag time (time to pass the crop and the stomach to reach the absorption site)” value in data set [3] (p.o. administration, on average) is 3.24 min. For the same molecule, in data set [3] (population fixed effect, log-normalized BW), the “βCl BW (covariate effect of body weight on clearance)” value was 0.77. The “tvTlag (typical value of lag time)” value in data set [3] (setting [6]) was 0.054 h. In addition, in data set [3] (setting [6]), the “tvka (typical value of absorption rate constant)” value is 1.26 h⁻¹. In data set [4], the adverse effects entry is on record as “No adverse effects were observed”.
